Laboratory results taken from patent EP0804147B1, “DERMATO-COSMETOLOGIC COMPOSITION” (PIERRE FABRE DERMO-COSMETIQUE, priority 1994, dated 1995).
Like-named read-outs stand apart in the source and are kept apart here.

Tests used:
[1] = Water retention capacity of skin flaps (stratum corneum samples soaked in active solution, dried, rehydrated; desorbed water quantified by GC-MS); settings: 90% d'humidité relative
From the text: Des échantillons de stratum corneum sont immergés pendant 24 heures dans une solution de l'actif à analyser. Ils sont ensuite séchés pendant 24 heures dans un dessicateur sur silicagel puis réhydratés pendant 48 heures dans une enceinte à 90% d'humidité relative.
Ces échantillons sont analysés après l'étape de séchage et après l'étape de réhydratation. La technique utilisée est la chromatographie en phase gazeuse couplée à la spectrométrie de masse.
Les échantillons de peau pesés sont placés dans un four chauffé à 100°C, la vapeur d'eau désorbée est entrainée par un gaz de balayage sec vers le chromatographe où elle sera détectée.
Un spectre est obtenu en sortie de l'appareil. L'eau désorbée est quantifiée par la mesure de l'aire du pic. Le spectromètre de masse couplé à la CPG permet de s'assurer que le composé désorbé et quantifié est bien de l'eau.
Cette technique allie donc une analyse qualitative à une analyse quantitative. Les résultats sont donnés en pourcentage d'eau retenue et permettent donc d'évaluer le pouvoir hygroscopique des produits.
Les résultats sont présentés sur la figure 1.

[2] = for effet hydratant: topical on forearm, 0-6 h
From the text: La spectroscopie infrarouge in vivo est une technique non invasive, rapide et de grande sensibilité. Les molécules absorbent toutes différemment le rayonnement infrarouge. C'est en analysant leur spectre d'absorption que l'on peut retrouver la structure de la molécule.
En fonction de l'application de divers traitements, des liaisons entre l'eau apportée et la peau se créent et entraînent des modifications de certaines bandes d'absorption.
Ainsi seront analysés sur le spectre les pics suivants : • le pic d'absorption dû à l'élongation de la liaison OH de l'eau à 2100 cm-1. Les variations d'intensité de ce pic ne sont pas visibles à l'oeil nu mais elles sont significatives et donc enregistrées. • le pic d'absorption dû à l'élongation des liaisons amide I à 1640 cm-1. L'élongation de cette liaison se trouve modifiée lorsque des liaisons hydrogènes se créent par apport d'eau. • le pic d'absorption dû à l'élongation des liaisons amide II à 1540 cm-1. Ce pic n'est influencé par la présence d'eau que de façon négligeable; il est donc utilisé pour pondérer les deux pics précédents.
Les préparations cosmétiques à tester sont appliquées sur une zone délimitée de l'avant-bras. Une zone non traitée est conservée comme témoin.
Pour chaque spectre obtenu sont mesurés les rapports suivants : (amideI)/(amideII)appelé facteur d'hydratation (ou MF); (eau)/(amideII) [formula]
Ces rapports sont calculés aux temps 0, 1, 2, ..., 6 heures et les courbes suivantes sont tracées : MF témoin(t) - MF bras traité(t) = f(t) avec t, représentant le temps en heures.; (eau)/(amideII)témoin(t) -(eau)/(amideII)bras traité(t) = f(t) [formula]
L'allure de ces courbes est ensuite comparée. En effet, le pic des amides I pourrait être directement influencé par le produit appliqué alors que le pic à 2100 cm-1 n'est influencé que par l'eau.
Si les deux courbes obtenues évoluent dans le même sens, on peut considérer que la variation enregistrée rend bien compte de la fixation de l'eau sur la peau. Dans le cas contraire, il faut émettre des réserves sur les conclusions à apporter.
On teste par cette technique des crèmes contenant 5% et 13% de glycolate de guanidine, de formules suivantes (les pourcentages sont exprimés en p/p) :
Les effets sont comparés avec ceux de compositions contenant : • 15% glycérol • 5% glycérol • 13% lactate d'ammonium • 5% lactate d'ammonium.

[3] = system: contaminations microbiennes; settings: cream containing 13%, no other preservative
Corynébactéries = settings: bacteria involved in body odour (armpits)
[4] = compared with lactate d'ammonium

For glycolate de guanidine, the eau retenue ([1]; skin treated with 13% solution) was 300%, the effet hydratant ([2]; cream containing 5% (formula B), figure 3) was “beaucoup plus hydratante que celle contenant 5% de glycérol” and the “durée de la différence d'hydratation” value ([2]; cream containing 5% vs 5% glycérol cream) was over 6 heures. The effet hydratant ([2]; cream containing 13% (formula A), figure 2) was “beaucoup plus hydratante que le placebo et que la crème contenant 13% de lactate d'ammonium”, the “durée de la différence d'hydratation” value ([2]; cream containing 13% vs placebo and 13% lactate d'ammonium cream) was over 6 heures and the “protection contre les contaminations microbiennes (conservateur)” value [3] was “s'auto-protège contre les contaminations microbiennes”. For the same compound, the “activité bactéricide” value (Corynébactéries) was “actif sur des bactéries impliquées dans la formation d'odeurs corporelles” and the “propriétés kératorégulatrices” value [4] was “supérieures à celles du lactate d'ammonium”.

`CC(O)C(=O)O` (stereo not shown) [lactate d'ammonium] gave an eau retenue ([1]; skin treated with 13% solution) of 135%.

In the case of `OCC(O)CO` [glycérol], the eau retenue ([1]; skin treated with 15% solution) is reported as 125%.
